The subject of experiment [1] is Id1 promoter driven Venus-Luci dual reporter gene in ID1-V-LUC hES. The experiment can be described thus: ID1-V-LUC hES luciferase assay with compound (Example 4). It counts as cell-based, human. To be noted: 18-24 h. How it is done: ID1-V-LUC hES were seeded in a 96-well plate and were grown to 80% confluency. The old medium was removed and the cells were washed with PBS, then mTeSR medium of human embryonic stem cell (Biowish.Co.,Ltd.) was added. The cells were starved for 6 hours prior to incubating with the compound: 1H-Pyrazolo[3,4-d]pyrimidine, 1-phenyl-4-(1-piperidinyl)- (Cas No :23000-46-6). The compound was serially diluted to 5, 2.5, 1.25, 0.625, 0.3 μg/mL in above-mentioned medium, and sequentially added in the 96-well plate in which the stem cells of the model were seeded. Triplicate replicates were used for each concentration. At the same time, the well in which the medium containing 0.1% DMSO was added as blank control. After the incubation of 18-24 h at 37° C. (5% CO2), the cells were lysed with cell lysis buffer CCLR (Promega), and the luciferase activity were detected using the method according to the instruction of the detection system of reporter gene, Luciferase Assay System (Promega).
The activity of luciferase resulting from the stimulation of the compounds at different concentrations was calculated using the following formula:
Regulation rate=Luciferase activity of compound-treated cells/Luciferase activity of DMSO-treated cells×100%

Experiment [2] has as its system endothelial cells. The experiment can be described thus: Angiogenesis of endothelial cells on Matrigel. The experiment is classed as cell-based. The conditions noted are these: 2-8 hours; for ability of angiogenesis compared with control: ECs on Matrigel. How it is done:
The endothelial cells were grown in complete culture medium (1% FBS in SFM) to confluency. One day before the experiment of angiogenesis, the medium was replaced by 0.2% FBS SFM to starve the cells for 16 hours. One the day before the experiment, Matrigel (Corning, 10 mg/ml) was put on ice overnight for thawing, and on the day of experiment, Matrigel was added in the wells of the pre-chilled 96-well plate (50 μl per well) and was distributed evenly in the wells. Then the plate was put in the incubator and incubated at 37 □ for 30 mins. Afterwards, the medium for starvation was removed and the cells were washed twice with DPBS, then Accutase enzyme was added to digest the cells for 1 minute. Later on, the SFM medium for starvation was added to resuspend the cells, and the cells were gently pipetted to form single cell suspension and centrifuged in room temperature at 1000 rpm for 4 mins. The cells were resuspended in SFM medium for starvation and counted. Then, the cells were seeded in 1×10^4 cells per well, and were gently shook to distributed evenly before putting in the incubator at 37 □. The angiogenesis was observed within 2-8 hours.

Experiment [3] relates to MCT-PAH rats. The experiment in a line: Monocrotaline induced PAH rat model (MCT-PAH). The experiment is classed as in vivo, Sprague-Dawley rats. To be noted: 4.5 mg/kg intragastric gavage, three weeks after MCT. How it is done:
In vivo experiments with MCT-PAH rats: Monocrotaline (MCT, 55 mg/kg) or saline were administrated subcutaneously in single dose to male Sprague-Dawley rats (supplied by Nation Institutes for Food and Medicament Control). Three weeks after the injection of MCT, 4.5 mg/kg of piperidino pyrazolopyrimidine compound (A), saline or positive control (Sildenafil) were administrated respectively to the rats by intragastric gavage. Two weeks after the administration, the right ventricular systolic pressure (RVSP) was measured and the survival rate was calculated with the data of RVSP recorded in BL-420E system (FIG. 13).

In experiment [4] the test system is phosphodiesterase. The experiment can be described thus: Inhibitory effect on phosphodiesterase. It counts as biochemical.
For experiment [5], the system named is Id1 promoter driven Venus-Luci dual reporter gene in ID1-V-LUC hES. The experiment in a line: ID1-V-LUC hES differentiated cells stimulated with BMP4, luciferase activity. To be noted: after 4 hours of stimulation with 6.25 ng/mL of BMP4, differentiated cells. It counts as cell-based, human. How it is done:
Id1-Venus-Luc-MC1-DTA plasmid was linearized with AsiSI, and then the resulting plasmid was electroporated into human embryonic stem cells (H9) of P57 (a commercially available human embryonic stem cells which could be passage to expand). At 37° C., CO2 5%, the cells were cultured on the DR4 MEF-feeder-cells (APPLIEDSTEMCELL, Inc., U.S.) with the medium containing serum replacement, and the medium was replaced by fresh medium daily. BioRad electroporation machine (ZAP: 250 V, uF 500, TC 8.6) was used for electroporation, then 19 clones were screened out using puromycin, and the clones with green fluorescence were picked out (the cells containing MC1-DTA plasmid cannot survive). The consistency between fluorescent activity and expression of endogenous Id gene was measured (FIG. 8).
The luciferase activity increased over time (0, 1, 2 and 5 hours) after the stimulation with of BMP4. The effect of external stimulus on the expression of Id gene can be reflected maximally by expression level of luciferase. Therefore, clone 2 (named as ID1-V-LUC hES) was selected and was used to carry out the secondary screening for the compounds (FIG. 9). ID1-V-LUC hES was differentiated toward early mesoderm, also the vascular cell with smooth muscle cell markers (α SMA, Calponin) were obtained. […]

We go through two molecules from patent US20180172669A1, “SCREENING AND USE OF PIPERIDINO PYRAZOLOPYRIMIDINE COMPOUND” (Institute of Basic Medical Sciences, Chinese Academy of …, priority 2015, published 2018).

Regarding `c1ccc(-n2ncc3c(N4CCCCC4)ncnc32)cc1` [piperidino pyrazolopyrimidine compound, 1H-Pyrazolo[3,4-d]pyrimidine,1-phenyl-4-(1-piperidinyl)-], in experiment [1] (5, 2.5, 1.25, 0.625, 0.3 μg/mL), the “expression level of luciferase of the stem cells of the model” value is given as “up-regulated”. In addition, in experiment [1] (concentration of the compound 2.5 μg/mL, vs DMSO), the “peak expression level of luciferase (regulation rate)” value is 3.31 fold. In addition, in experiment [2] (1 μM), the “ability of angiogenesis relative to VEGF treated ECs” value is reported as “comparable” and the “ability of angiogenesis compared with control” value was “significantly increased”. Moreover, in experiment [2] (5 μM), the “ability of angiogenesis relative to VEGF treated ECs” value is given as “comparable” and the “ability of angiogenesis compared with control” value is listed as “significantly increased”. Further, the “pulmonary arterial pressure (right ventricular systolic pressure, RVSP) of MCT-PAH rats” value in experiment [3] (measured two weeks after the administration) is “decreased significantly”. The “survival rate of the rats with MCT-PAH” value in experiment [3] (two weeks after the administration) is “increased obviously”. In addition, the “inhibitory effect on phosphodiesterase” value in experiment [4] was “weak inhibitory effect”.

B1: BMP4: BMP ligand (Peprotech) used to stimulate ID1-V-LUC hES cells (protein, UniProt P12644 293-408, looked up)
Bone morphogenetic protein 4: SPKHHSQRARKKNKNCRRHSLYVDFSDVGWNDWIVAPPGYQAFYCHGDCPFPLADHLNSTNHAIVQTLVNSVNSSIPKACCVPTELSAISMLYLDEYDKVVLKNYQEMVVEGCGCR
As for B1, in experiment [5], the “regulation rate of ID1-V-LUC” value is 7.5 fold.
